The text below walks through data of US7582645B2, “Pyrimidine derivatives for treatment of hyperproliferative disorders” (Bayer Pharmaceuticals Corporation, priority 2003, dated 2009).

The test system of one assay is HCT116 cells. The assay is described as follows: HCT116 cytotoxic activity assay (Alamar Blue, 72 h). Type of assay: cell-based. To be noted: Homo sapiens, HCT-116, 72 h compound exposure, greater than 500 nM but less than or equal to 2 μM. As for the experimental part: Representative compounds of this invention were tested for cytotoxicity using the above-described assay procedure with the following results: […]
On the technique in general: Alamar Blue is a resazurin reagent that responds to reducing activity.
On to `CN(C)c1ccc(-c2cc(Nc3ccc(Oc4ccnc(C#N)c4)cc3)nc(N)n2)cc1` [Example 232, 4-[4-({2-amino-6-[4-(dimethylamino)phenyl]pyrimidin-4-yl}amino)phenoxy]pyridine-2-carbonitrile], for which the IC50 – broadly, the concentration at which inhibition is half-maximal – was in the range of 0.5 to 2 µM. For the compound `Nc1nc(Nc2ccc(Oc3ccnc(C(F)(F)F)c3)cc2)cc(-c2cccc(C(F)(F)F)c2)n1` [Example 197, 6-[3-(trifluoromethyl)phenyl]-N4*-(4-{[2-(trifluoromethyl)pyridin-4-yl]oxy}phenyl)pyrimidine-2,4-diamine], the concentration for half-maximal inhibition (IC50) was 0.5 to 2 µM. Turning to `COCCNC(=O)c1cc(Oc2ccc(Nc3cc(-c4ccccc4)nc(N)n3)cc2)ccn1` [Example 23, 4-{4-[(2-amino-6-phenylpyrimidin-4-yl)amino]phenoxy}-N-(2-methoxyethyl)pyridine-2-carboxamide], the IC50 lay in the range of 0.5 to 2 µM. The compound `Cc1cc(Oc2ccc(Nc3cc(-c4ccccc4OC(F)(F)F)nc(N)n3)cc2)ccn1` [Example 309, N4-{4-[(2-methylpyridin-4-yl)oxy]phenyl}-6-[2-(trifluoromethoxy)phenyl]pyrimidine-2,4-diamine] showed an IC50 of 0.5 to 2 µM. Same read-out and setting: the result for `Cc1cc(Oc2ccc(Nc3cc(-c4cccc(OC(F)(F)F)c4)nc(N)n3)cc2)ccn1` [Example 325, N4*-{4-[(2-methylpyridin-4-yl)oxy]phenyl}-6-[3-(trifluoromethoxy)phenyl]pyrimidine-2,4-diamine] reads 0.5 to 2 µM.

`COc1ccc(-c2cc(Nc3ccc(Oc4ccnc(C(F)(F)F)c4)cc3)nc(N)n2)cc1OC` [Example 189, 6-(3,4-dimethoxyphenyl)-N4*-(4-{[2-(trifluoromethyl)pyridin-4-yl]oxy}phenyl)pyrimidine-2,4-diamine]: the IC50 fell in the range of 0.5 to 2 µM. Take `COc1ccc(-c2cc(Nc3cccc(Oc4ccnc(C(N)=O)c4)c3)nc(N)n2)cn1` [Example 284, 4-(3-{[2-amino-6-(6-methoxypyridin-3-yl)pyrimidin-4-yl]amino}phenoxy) pyridine-2-carboxamide]: the IC50 is 0.5 to 2 µM.

Still in this assay, the particulars now being: Homo sapiens, HCT-116, 72 h compound exposure, greater than 2 μM.
As to `CNC(=O)c1cc(Oc2ccc(Nc3cc(-c4ccc(F)cc4)nc(N)n3)cc2)ccn1` [Example 71, 4-(4-{[2-amino-6-(4-fluorophenyl)pyrimidin-4-yl]amino}phenoxy)-N-methylpyridine-2-carboxamide], the IC50 is > 2 µM.

`CC(C)c1ccc(-c2cc(Nc3cccc(Oc4ccnc(C(N)=O)c4)c3)nc(N)n2)cc1` [Example 293, 4-(3-{[2-amino-6-(4-isopropylphenyl)pyrimidin-4-yl]amino}phenoxy) pyridine-2-carboxamide]: the IC50 was > 2 µM.

In the case of `NC(=O)c1cc(Oc2cccc(Nc3cc(-c4ccc(-c5ccccc5)cc4)nc(N)n3)c2)ccn1` [Example 280, 4-{3-[(2-amino-6-biphenyl-4-ylpyrimidin-4-yl)amino]phenoxy} pyridine-2-carboxamide], the half-inhibitory concentration (IC50) was > 2 µM. As to `COC[C@H]1CCCN1c1cc(Oc2cccc(Nc3cc(-c4ccccc4)nc(N)n3)c2)ccn1` [Example 147, N4*-[3-({2-[(2R)-2-(methoxymethyl)pyrrolidin-1-yl]pyridin-4-yl}oxy)phenyl]-6-phenylpyrimidine-2,4-diamine], the concentration for half-maximal inhibition (IC50) is > 2 µM. As for `N#Cc1cc(Oc2ccc(Nc3cc(-c4cccc(OC(F)(F)F)c4)nc(N)n3)cc2)ccn1` [Example 274, 4-[4-({2-amino-6-[3-(trifluoromethoxy)phenyl]pyrimidin-4-yl}amino)phenoxy]pyridine-2-carbonitrile], the IC50 is > 2 µM. In the case of `NC(=O)c1cc(Oc2cccc(Nc3cc(-c4ccc(Cl)c(Cl)c4)nc(N)n3)c2)ccn1` [Example 303, 4-(3-{[2-amino-6-(3,4-dichlorophenyl)pyrimidin-4-yl]amino}phenoxy)pyridine-2-carboxamide], the half-inhibitory concentration (IC50) is > 2 µM.

The assay is the same for the next values; noted with them: Homo sapiens, HCT-116, 72 h compound exposure, less than or equal to 500 nM.
For the compound `CNC(=O)c1cc(Oc2cccc(Nc3cc(-c4ccccc4)nc(N)n3)c2)ccn1` [Example 4, 4-{3-[(2-amino-6-phenylpyrimidin-4-yl)amino]phenoxy}-N-methylpyridine-2-carboxamide], the half-inhibitory concentration (IC50) is ≤ 0.5 µM. The same measure, in the same setting: then `Nc1nc(Nc2ccc(Oc3ccc([N+](=O)[O-])cc3)cc2)cc(-c2ccccc2)n1` [Example 11, N^4-[4-(4-nitrophenoxy)phenyl]-6-phenylpyrimidine-2,4 diamine], with ≤ 0.5 µM. Consider `N#Cc1cc(Cc2ccc(Nc3cc(-c4ccccc4)nc(N)n3)cc2)ccn1` [Example 35, 4-[4-(2-amino-6-phenyl-pyrimidin-4-ylamino)-benzyl]-pyridine-2-carbonitrile], for which the IC50 was ≤ 0.5 µM. Take `CC(C)c1ccc(-c2cc(Nc3ccc(Oc4ccnc(C(N)=O)c4)cc3)nc(N)n2)cc1` [Example 266, 4-(4-{[2-amino-6-(4-isopropylphenyl)pyrimidin-4-yl]amino}phenoxy) pyridine-2-carboxamide]: the IC50 was ≤ 0.5 µM.

With `CS(=O)(=O)NCc1cc(Oc2ccc(Nc3cc(-c4ccccc4)nc(N)n3)cc2)ccn1` [Example 40, N-[(4-{4-[(2-amino-6-phenylpyrimidin-4-yl)amino]-phenoxy}pyridin-2-yl)methyl]methanesulfonamide], the half-maximal inhibitory concentration (IC50) is ≤ 0.5 µM. In the case of `Nc1nc(Nc2cccc(Oc3ccnc(Cl)c3)c2)cc(-c2ccccc2)n1` [Example 113, N4*-{3-[(2-chloropyridin-4-yl)oxy]phenyl}-6-phenylpyrimidine-2,4-diamine], the half-inhibitory concentration (IC50) is ≤ 0.5 µM. Consider `CNC(=O)c1cc(Oc2cccc(Nc3cc(-c4cccc(OC)c4)nc(N)n3)c2)ccn1` [Example 76, 4-(3-{[2-amino-6-(3-methoxyphenyl)pyrimidin-4-yl]amino}phenoxy)-N-methylpyridine-2-carboxamide], for which the IC50 is ≤ 0.5 µM.

For `CCc1ccccc1-c1cc(Nc2ccc(Oc3ccnc(CN)c3)cc2)nc(N)n1` [Example 163, N4*-(4-{[2-(aminomethyl)pyridin-4-yl]oxy}phenyl)-6-(2-ethylphenyl)pyrimidine-2,4-diamine], the IC50 was ≤ 0.5 µM.

As to `CCCCc1ccc(-c2cc(Nc3ccc(Oc4ccnc(C(N)=O)c4)cc3)nc(N)n2)cc1` [Example 259, 4-(4-{[2-amino-6-(4-butylphenyl)pyrimidin-4-yl]amino}phenoxy) pyridine-2-carboxamide], the IC50 is ≤ 0.5 µM.

Turning to `Cc1cc(Oc2ccc(Nc3cc(-c4ccc(O)cc4)nc(N)n3)cc2)ccn1` [Example 310, 4-[2-amino-6-({4-[(2-methylpyridin-4-yl)oxy]phenyl}amino)pyrimidin-4-yl]phenol], the IC50 is ≤ 0.5 µM. On to `Nc1nc(Nc2ccc(Oc3cc[n+]([O-])c(C(F)(F)F)c3)cc2)cc(-c2ccccc2)n1` [Example 38, N^4-(4-{[1-oxido-2-(trifluoromethyl)pyridin-4-yl]oxy}phenyl)-6-phenylpyrimidine-2,4-diamine], for which the IC50 was ≤ 0.5 µM.

Turning to `Nc1nc(Nc2ccc(Oc3ccnc(C(F)(F)F)c3)cc2)cc(-c2cccs2)n1` [Example 188, 6-(2-thienyl)-N4*-(4-{[2-(trifluoromethyl)pyridin-4-yl]oxy}phenyl)pyrimidine-2,4-diamine], the IC50 was ≤ 0.5 µM. On the same count and under the same terms, the result for `Nc1nc(Nc2ccc(Oc3ccnc(C(F)(F)F)c3)cc2)cc(-c2ccc(O)cc2)n1` [Example 51, 4-{2-amino-6-[(4-{[2-(trifluoromethyl)pyridin-4-yl]oxy}phenyl)amino]pyrimidin-4-yl}phenol] reads ≤ 0.5 µM. For `Cc1ccc(-c2cc(Nc3ccc(Oc4ccnc(C(F)(F)F)c4)cc3)nc(N)n2)cc1` [Example 211, 6-(4-methylphenyl)-N4*-(4-{[2-(trifluoromethyl)pyridin-4-yl]oxy}phenyl)pyrimidine-2,4-diamine], the half-inhibitory concentration (IC50) was ≤ 0.5 µM. On the same count and under the same terms, the result for `Nc1nc(Nc2ccc(Oc3ccnc(C(F)(F)F)c3)cc2)cc(-c2cccc(O)c2)n1` [Example 167, 3-{2-amino-6-[(4-{[2-(trifluoromethyl)pyridin-4-yl]oxy}phenyl)amino]pyrimidin-4-yl}phenol] reads ≤ 0.5 µM; that for `COC[C@@H]1CCCN1c1cc(Oc2ccc(Nc3cc(-c4ccccc4)nc(N)n3)cc2)ccn1` [Example 49, (S)—N^4-{4-[2-(2-Methoxymethylpyrrolidin-1-yl)pyridin-4-yloxy]phenyl}-6-phenylpyrimidine-2,4-diamine], ≤ 0.5 µM. As for `Nc1nc(Nc2ccc(Oc3ccnc(-c4nnn[nH]4)c3)cc2)cc(-c2ccccc2)n1` [Example 46, 6-phenyl-N^4-{4-[2-(1H-tetrazol-5-yl)pyridin-4-yloxy]phenyl}pyrimidine-2,4-diamine], the 50% inhibitory concentration (IC50) is ≤ 0.5 µM. For `CCOc1ccccc1-c1cc(Nc2ccc(Oc3ccnc(C(F)(F)F)c3)cc2)nc(N)n1` [Example 157, 6-(2-ethoxyphenyl)-N4*-(4-{[2-(trifluoromethyl)pyridin-4-yl]oxy}phenyl) pyrimidine-2,4-diamine], the half-inhibitory concentration (IC50) is ≤ 0.5 µM. In the case of `Nc1nc(Nc2ccc(Oc3ccnc(C(F)(F)F)c3)cc2)cc(-c2ccccc2F)n1` [Example 193, 6-(2-fluorophenyl)-N4*-(4-{[2-(trifluoromethyl)pyridin-4-yl]oxy}phenyl)pyrimidine-2,4-diamine], the IC50 is ≤ 0.5 µM. Consider `Cc1cccc(-c2cc(Nc3ccc(Oc4ccnc(C(F)(F)F)c4)cc3)nc(N)n2)c1` [Example 212, 6-(3-methylphenyl)-N4*-(4-{[2-(trifluoromethyl)pyridin-4-yl]oxy}phenyl)pyrimidine-2,4-diamine], for which the IC50 was ≤ 0.5 µM. Turning to `Nc1cc(Oc2ccc(Nc3cc(-c4ccccc4)nc(N)n3)cc2)ccn1` [Example 53, N^4-[4-(2-aminopyridin-4-yloxy)phenyl]-6-phenylpyrimidine-2,4-diamine], the IC50 is ≤ 0.5 µM.

Take `Nc1nc(Nc2cccc(Oc3ccnc(N4CCOCC4)c3)c2)cc(-c2ccccc2)n1` [Example 120, N4*-{3-[(2-morpholin-4-ylpyridin-4-yl)oxy]phenyl}-6-phenylpyrimidine-2,4-diamine]: the IC50 is ≤ 0.5 µM. With `Nc1nc(Nc2ccc(Oc3ccnc(C(F)(F)F)c3)cc2)cc(-c2cccc(CO)c2)n1` [Example 205, (3-{2-amino-6-[(4-{[2-(trifluoromethyl)pyridin-4-yl]oxy}phenyl)amino]pyrimidin-4-yl}phenyl) methanol], the half-maximal inhibitory concentration (IC50) was ≤ 0.5 µM.
